Consider 23 compounds from patent US8741897B2, “Glucocorticoid mimetics, methods of making them, pharmaceutical compositions and uses thereof” (Boehringer Ingelheim Pharmaceuticals Inc., priority 2003, dated 2014).

The target in experiment [1] is T1, human glucocorticoid receptor (GR) complex (Homo sapiens, UniProt P04150).
T1 construct: made in house; host or cells: insect expression system (baculovirus lysate)
T1 sequence (P04150 1-777): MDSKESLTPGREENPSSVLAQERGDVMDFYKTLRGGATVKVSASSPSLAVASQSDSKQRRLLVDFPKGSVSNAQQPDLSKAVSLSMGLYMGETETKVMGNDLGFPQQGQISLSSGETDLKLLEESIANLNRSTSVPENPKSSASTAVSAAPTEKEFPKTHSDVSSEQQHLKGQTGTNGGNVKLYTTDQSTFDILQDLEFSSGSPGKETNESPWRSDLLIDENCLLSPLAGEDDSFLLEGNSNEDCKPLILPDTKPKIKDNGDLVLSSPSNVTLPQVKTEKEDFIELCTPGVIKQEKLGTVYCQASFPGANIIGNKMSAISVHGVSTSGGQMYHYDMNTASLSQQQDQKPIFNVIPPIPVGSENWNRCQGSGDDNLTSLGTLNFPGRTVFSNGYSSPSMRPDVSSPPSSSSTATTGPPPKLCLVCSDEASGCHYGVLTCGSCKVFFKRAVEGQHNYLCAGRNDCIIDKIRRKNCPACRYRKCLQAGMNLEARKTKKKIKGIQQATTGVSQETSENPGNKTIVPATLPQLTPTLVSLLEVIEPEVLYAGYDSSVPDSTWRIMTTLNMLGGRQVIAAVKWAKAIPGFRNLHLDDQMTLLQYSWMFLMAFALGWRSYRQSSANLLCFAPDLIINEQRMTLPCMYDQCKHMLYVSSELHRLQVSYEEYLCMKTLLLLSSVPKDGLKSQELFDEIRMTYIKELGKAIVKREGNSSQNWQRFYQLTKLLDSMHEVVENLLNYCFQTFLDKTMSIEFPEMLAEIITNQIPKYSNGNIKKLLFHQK
In words: Glucocorticoid receptor competitive binding assay (fluorescence polarization, TAMRA-labeled dexamethasone probe). The following applies: compounds of Formula (IA). The gist of the method: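 Fluorescence-polarization competition against 15 nM TAMRA-dexamethasone (stock added to the mix) for human GR complex from baculovirus lysate diluted 1:170. Buffer: 10 mM TES, 50 mM KCl, 20 mM Na2MoO4, 1.5 mM EDTA, 0.04% CHAPS, 10% glycerol, 1 mM DTT, pH 7.4. IC50 from 4-parameter logistic fit.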
(Fluorescence polarisation rises when a labelled molecule tumbles more slowly, as on binding a larger partner.)

Experiment [2] deals with glucocorticoid receptor function. In words: one or more of the above assays (GR binding and glucocorticoid receptor cell assays: aromatase, IL-6, TAT, MMTV-Luc, IL-8, ICAM-Luc). Type of experiment: cell-based. The following applies: assay not specified per compound.

For `CC(C)(CC(O)(Cc1ccnc2ccccc12)C(F)(F)F)c1cccc(Cl)c1` (stereo not shown) [4-(3-Chlorophenyl)-1,1,1-trifluoro-4-methyl-2-quinolin-4-ylmethylpentan-2-ol], the “activity in the GR binding assay” value in experiment [1] is reported as “potent activity”. In experiment [2], the “activity as agonists of the glucocorticoid receptor function in one or more of the above assays” value (“activity as agonists” below) is reported as “potent agonists”.

Turning to `COc1ccc(F)cc1C(C)(C)CC(O)(Cc1cc2cncnc2[nH]1)C(F)(F)F` (stereo not shown) [1,1,1-Trifluoro-4-(5-fluoro-2-methoxyphenyl)-4-methyl-2-(7H-pyrrolo[2,3-d]pyrimidin-6-ylmethyl)pentan-2-ol], the “activity in the GR binding assay” value in experiment [1] was “potent activity”. Also, in experiment [2], the “activity as agonists” value was “potent agonists”.

Consider `COc1ccc(F)cc1C(C)(C)CC(O)(Cc1cc2ccncc2s1)C(F)(F)F` (stereo not shown) [1,1,1 -Trifluoro-4-(5-fluoro-2-methoxyphenyl)-4-methyl-2-thieno[2,3-c]pyridin-2-ylmethylpentan-2-ol], for which the “activity in the GR binding assay” value in experiment [1] is “potent activity”. In experiment [2], the “activity as agonists” value is given as “potent agonists”.

With `CN(C)Cc1cccc(C(C)(C)CC(O)(Cc2cc3cc(C#N)ccc3[nH]2)C(F)(F)F)c1` (stereo not shown) [2-[4-(3-Dimethylaminomethylphenyl)-2-hydroxy-4-methyl-2-trifluoromethylpentyl]-1H-indole-5-carbonitrile], the “activity in the GR binding assay” value in experiment [1] is on record as “potent activity”. Further, in experiment [2], the “activity as agonists” value was “potent agonists”.

For the compound `CC(C)(CC(O)(Cc1cc2ccncc2[nH]1)C(F)(F)F)c1cc(Cl)cc2c1OCC2` (stereo not shown) [4-(5-Chloro-2,3-dihydrobenzofuran-7-yl)-1,1,1-trifluoro-4-methyl-2-(1H-pyrrolo[2,3-c]pyridin-2-ylmethyl)pentan-2-ol], the “activity in the GR binding assay” value in experiment [1] was “potent activity”. Besides, the “activity as agonists” value in experiment [2] was “potent agonists”.

With `Cc1cc(CC(O)(CC(C)(C)c2cccc(F)c2)C(F)(F)F)cc(C)n1` (stereo not shown) [2-(2,6-Dimethylpyridin-4-ylmethyl)-1,1,1-trifluoro-4-(3-fluorophenyl)-4-methylpentan-2-ol], the “activity in the GR binding assay” value in experiment [1] is “potent activity”. For the same compound, in experiment [2], the “activity as agonists” value is on record as “potent agonists”.

As for `Cc1ccc(F)cc1C(C)(C)CC(O)(Cc1cc2ncncc2[nH]1)C(F)(F)F` (stereo not shown) [1,1,1-Trifluoro-4-(5-fluoro-2-methylphenyl)-4-methyl-2-(5H-pyrrolo[3,2-d]pyrimidin-6-ylmethyl)pentan-2-ol], in experiment [1], the “activity in the GR binding assay” value is on record as “potent activity”. Besides, the “activity as agonists” value in experiment [2] was “potent agonists”.

As to `CC(C)(CC(O)(Cc1ccnc2ccccc12)C(F)(F)F)c1ccc(F)cc1` (stereo not shown) [1,1,1-Trifluoro-4-(4-fluorophenyl)-4-methyl-2-quinolin-4-ylmethylpentan-2-ol], the “activity in the GR binding assay” value in experiment [1] is listed as “potent activity”. Moreover, the “activity as agonists” value in experiment [2] is on record as “potent agonists”.

As for `CC(C)(CC(O)(Cc1ccnc2ccccc12)C(F)(F)F)c1cc(C#N)cc2c1OCC2` (stereo not shown) [7-(4,4,4-Trifluoro-3-hydroxy-1,1-dimethyl-3-quinolin-4-ylmethylbutyl)-2,3-dihydrobenzofuran-5-carbonitrile], the “activity in the GR binding assay” value in experiment [1] is “potent activity”. Also, in experiment [2], the “activity as agonists” value is given as “potent agonists”.

For the compound `CC(C)(CC(O)(Cc1cc2ccccc2[nH]1)C(F)(F)F)c1cccc(Br)c1` (stereo not shown) [4-(3-Bromophenyl)-1,1,1-trifluoro-2-(1H-indol-2-ylmethyl)-4-methylpentan-2-ol], the “activity in the GR binding assay” value in experiment [1] was “potent activity”. Further, the “activity as agonists” value in experiment [2] is on record as “potent agonists”.

Consider `CC(C)(CC(O)(Cc1cc2ccccc2[nH]1)C(F)(F)F)c1ccc(F)cc1` (stereo not shown) [1,1,1-Trifluoro-4-(4-fluorophenyl)-2-(1H-indol-2-ylmethyl)-4-methylpentan-2-ol], for which, in experiment [1], the “activity in the GR binding assay” value is “potent activity”. The “activity as agonists” value in experiment [2] was “potent agonists”.

As to `COc1ccc(C(C)C)cc1C(C)(C)CC(O)(Cc1[nH]c2ccccc2c1C#N)C(F)(F)F` (stereo not shown) [2-[2-Hydroxy-4-(5-isopropyl-2-methoxyphenyl)-4-methyl-2-trifluoromethylpentyl]-1H-indole-3-carbonitrile], in experiment [1], the “activity in the GR binding assay” value is on record as “potent activity”. Moreover, in experiment [2], the “activity as agonists” value was “potent agonists”.

For `COc1ccc(F)cc1C(C)(C)CC(O)(Cc1cc2cc(Cl)nc(Cl)c2[nH]1)C(F)(F)F` (stereo not shown) [2-(5,7-Dichloro-1H-pyrrolo[2,3-c]pyridin-2-ylmethyl)-1,1,1-trifluoro-4-(5-fluoro-2-methoxyphenyl)-4-methylpentan-2-ol], in experiment [1], the “activity in the GR binding assay” value is “potent activity”. In experiment [2], the “activity as agonists” value is “potent agonists”.

With `Cc1cc(F)ccc1C(C)(C)CC(O)(Cc1ccnc2ccccc12)C(F)(F)F` (stereo not shown) [1,1,1-Trifluoro-4-(4-fluoro-2-methylphenyl)-4-methyl-2-quinolin-4-ylmethylpentan-2-ol], the “activity in the GR binding assay” value in experiment [1] is given as “potent activity”. In addition, the “activity as agonists” value in experiment [2] is given as “potent agonists”.

In the case of `CC(C)(CC(O)(Cc1cc(Cl)nc(Cl)c1C#N)C(F)(F)F)c1cc(F)ccc1O` (stereo not shown) [2,6-Dichloro-4-[4-(5-fluoro-2-hydroxyphenyl)-2-hydroxy-4-methyl-2-trifluoromethylpentyl]nicotinonitrile], the “activity in the GR binding assay” value in experiment [1] is reported as “potent activity”. Moreover, in experiment [2], the “activity as agonists” value was “potent agonists”.

Turning to `COc1ccc(F)cc1C(C)(C)CC(O)(Cc1cc2cc(NC(C)=O)ccc2[nH]1)C(F)(F)F` (stereo not shown) [N-{2-[4-(5-Fluoro-2-methoxyphenyl)-2-hydroxy-4-methyl-2-trifluoromethylpentyl]-1H-indol-5-yl}acetamide], in experiment [1], the “activity in the GR binding assay” value is “potent activity”. Besides, in experiment [2], the “activity as agonists” value was “potent agonists”.

`CC(C)(CC(O)(Cc1ccnc2ccccc12)C(F)(F)F)c1cccc(O)c1` (stereo not shown) [3-(4,4,4-Trifluoro-3-hydroxy-1,1-dimethyl-3-quinolin-4-ylmethylbutyl)phenol]: the “activity in the GR binding assay” value in experiment [1] is recorded as “potent activity”. Also, in experiment [2], the “activity as agonists” value is given as “potent agonists”.

Consider `CC(C)(CC(O)(Cc1cc2ccccc2[nH]1)C(F)(F)F)c1ccccc1F` (stereo not shown) [1,1,1-Trifluoro-4-(2-fluorophenyl)-2-(1H-indol-2-ylmethyl)-4-methylpentan-2-ol], for which, in experiment [1], the “activity in the GR binding assay” value was “potent activity”. For the same compound, the “activity as agonists” value in experiment [2] is recorded as “potent agonists”.

As to `Cc1cc(CC(O)(CC(C)(C)c2ccc(F)cc2)C(F)(F)F)c2ccccc2n1` (stereo not shown) [1,1,1-Trifluoro-4-(4-fluorophenyl)-4-methyl-2-(2-methylquinolin-4-ylmethyl)pentan-2-ol], the “activity in the GR binding assay” value in experiment [1] is “potent activity”. The “activity as agonists” value in experiment [2] was “potent agonists”.

On to `CC(C)(CC(O)(Cc1cc2cc(C#N)ccc2[nH]1)C(F)(F)F)c1cccc(C2OCCO2)c1` (stereo not shown) [2-[4-(3-[1,3]Dioxolan-2-ylphenyl)-2-hydroxy-4-methyl-2-trifluoromethylpentyl]-1H-indole-5-carbonitrile], for which the “activity in the GR binding assay” value in experiment [1] is recorded as “potent activity”. For the same compound, the “activity as agonists” value in experiment [2] was “potent agonists”.

On to `CC(C)(CC(O)(Cc1ccnc2ccccc12)C(F)(F)F)c1ccccc1F` (stereo not shown) [1,1,1-Trifluoro-4-(2-fluorophenyl)-4-methyl-2-quinolin-4-ylmethylpentan-2-ol], for which the “activity in the GR binding assay” value in experiment [1] is listed as “potent activity”. In addition, the “activity as agonists” value in experiment [2] is reported as “potent agonists”.

As for `COc1ccc(F)cc1C(C)(C)CC(O)(Cc1cc2nc(C#N)ccc2[nH]1)C(F)(F)F` (stereo not shown) [2-[4-(5-Fluoro-2-methoxyphenyl)-2-hydroxy-4-methyl-2-trifluoromethylpentyl]-1H-pyrrolo[3,2-b]pyridine-5-carbonitrile], the “activity in the GR binding assay” value in experiment [1] is on record as “potent activity”. The “activity as agonists” value in experiment [2] is “potent agonists”.

On to `CC(C)(CC(O)(Cn1ccc2ncccc21)C(F)(F)F)c1cc(Cl)cc2c1OCC2` (stereo not shown) [4-(5-Chloro-2,3-dihydrobenzofuran-7-yl)-1,1,1-trifluoro-4-methyl-2-pyrrolo[3,2-b]pyridin-1-ylmethylpentan-2-ol], for which the “activity in the GR binding assay” value in experiment [1] is recorded as “potent activity”. Moreover, the “activity as agonists” value in experiment [2] was “potent agonists”.
